Converted amounts (≈) assume the structure as drawn. Like-named read-outs stand apart in the source and are kept apart here.
Columns and labels:
MRSA ATCC 43300 = system: MRSA ATCC 43300
Procedure: (§1) A positive control of a row of just the bacteria and a negative control of only the medium were included for every plate tested.
(§2) The compounds along with standard antibiotics were serially diluted 2-fold across the 96-well plates. […] A sample of each culture was then diluted 40-fold in fresh MH broth (in presence and absence of Tween) and incubated at 37°C for 2 to 3 h.
For experiments in the presence of surfactant, 2% beractant (25 mg/ml) was added to the mid-log-phase cultures and mixed gently and added to all the 96-well plates. For experiments in the presence of serum, a mixture of 50% of human serum along with 50% MHB was prepared and used throughout the experiment.

E. faecalis ATCC 29212 = test: microbe, parasite or virus in culture; conditions: n = 2
Procedure: as §1, §2

[1] = system: MSSA S. aureus ATCC 25923; test: microbe, parasite or virus in culture; conditions: n = 2
Procedure: as §1, §2

[2] = system: S. aureus GISA NRS 2; ATCC 700698; test: microbe, parasite or virus in culture; conditions: n = 2
Procedure: as §1, §2

S. pneumoniae ATCC 33440 = test: microbe, parasite or virus in culture; conditions: n = 2
Procedure: as §1, §2

[3] = system: S. pneumoniae ATCC 700677 (MDR); test: microbe, parasite or virus in culture; conditions: n = 2
Procedure: as §1, §2

S. pyogenes ATCC 12344 = conditions: n = 2
Procedure: as §1, §2

MRSA = conditions: literature value; cited from earlier work
Source text: TABLE 1 Literature MIC values for tested antibiotics | column: MIC (µg/ml) (reference[s]) / MRSA

[4] = literature values, reference given; cited from earlier work
Source text: Other assay additives can affect MIC values. […] Plasma protein binding has been implicated as a major factor limiting the active free concentration of many clinically important antibiotics ([37][–][42]).

[5] = cited from earlier work
Source text: Other assay additives can affect MIC values. […] This in turn translates into reduced ...

## CCCCCCCCCCNCCN[C@@]1(C)C[C@H](O[C@H]2[C@H](Oc3c4cc5cc3Oc3ccc(cc3Cl)[C@@H](O)[C@@H](NC(=O)[C@@H](CC(C)C)NC)C(=O)N[C@@H](CC(N)=O)C(=O)N[C@H]5C(=O)N[C@H]3C(=O)N[C@H](C(=O)N[C@H](C(=O)O)c5cc(O)c(CNCP(=O)(O)O)c(O)c5-c5cc3ccc5O)[C@H](O)c3ccc(c(Cl)c3)O4)O[C@H](CO)[C@@H](O)[C@@H]2O)O[C@@H](C)[C@H]1O [Telavancin, telavancin]
MRSA ATCC 43300; Corning NBS, MH + 2% LHB, 2% LS, n = 2
  MIC: 0.125 µg/mL
MRSA ATCC 43300; Corning NBS, MH + 2% LHB, 50% HS, n = 2
  MIC: 0.25 µg/mL
MRSA ATCC 43300; Corning NBS, MH + 2% LHB, no additive, n = 2
  MIC: 0.06 to 0.125 µg/mL
MRSA ATCC 43300; Corning NBS, MH + T80, 2% LS, n = 2
  MIC: 0.06 to 0.125 µg/mL
MRSA ATCC 43300; Corning NBS, MH + T80, 50% HS, n = 2
  MIC: 0.25 µg/mL
MRSA ATCC 43300; Corning NBS, MH, 2% LS, n = 2
  MIC: 0.125 µg/mL (≈ 0.0712 µM)
MRSA ATCC 43300; Corning NBS, MH, 50% HS, n = 2
  MIC: 0.25 µg/mL (≈ 0.142 µM)
MRSA ATCC 43300; Corning PS, MH + 2% LHB, 2% LS, n = 2
  MIC: 0.125 µg/mL
MRSA ATCC 43300; Corning PS, MH + 2% LHB, 50% HS, n = 2
  MIC: 0.125 to 0.25 µg/mL
MRSA ATCC 43300; Corning PS, MH + 2% LHB, no additive, n = 2
  MIC: 0.06 µg/mL
MRSA ATCC 43300; Corning PS, MH + T80, 2% LS, n = 2
  MIC: 0.06 to 0.25 µg/mL
MRSA ATCC 43300; Corning PS, MH + T80, 50% HS, n = 2
  MIC: 0.25 µg/mL
MRSA ATCC 43300; Corning PS, MH, 2% LS, n = 2
  MIC: 0.03 to 0.125 µg/mL
MRSA ATCC 43300; Corning PS, MH, 50% HS, n = 2
  MIC: 0.125 to 0.25 µg/mL
MRSA ATCC 43300; Corning TC, MH + 2% LHB, 2% LS, n = 2
  MIC: 0.25 to 1 µg/mL
MRSA ATCC 43300; Corning TC, MH + 2% LHB, 50% HS, n = 2
  MIC: 2 to 8 µg/mL
MRSA ATCC 43300; Corning TC, MH + 2% LHB, no additive, n = 2
  MIC: 0.125 µg/mL
MRSA ATCC 43300; Corning TC, MH + T80, 2% LS, n = 2
  MIC: 0.125 to 0.25 µg/mL
MRSA ATCC 43300; Corning TC, MH + T80, 50% HS, n = 2
  MIC: 0.25 to 1 µg/mL
MRSA ATCC 43300; Corning TC, MH, 2% LS, n = 2
  MIC: 0.25 to 0.5 µg/mL
MRSA ATCC 43300; Corning TC, MH, 50% HS, n = 2
  MIC: 0.5 to 1 µg/mL
MRSA ATCC 43300; Corning flat NBS plate, MHB +0.002% T80, no further additive, n = 2
  MIC: 0.125 µg/mL (≈ 0.0712 µM)
MRSA ATCC 43300; Corning flat NBS plate, MHB −T80, no additive, n = 2
  MIC: 0.03 to 0.06 µg/mL
MRSA ATCC 43300; Corning flat PS plate, MHB +0.002% T80, no further additive, n = 2
  MIC: 0.03 to 0.06 µg/mL
MRSA ATCC 43300; Corning flat PS plate, MHB −T80, no additive, n = 2
  MIC: 0.06 µg/mL (≈ 0.0342 µM)
MRSA ATCC 43300; Corning flat TC plate, MHB +0.002% T80, no further additive, n = 2
  MIC: 0.125 to 0.25 µg/mL
MRSA ATCC 43300; Corning flat TC plate, MHB −T80, no additive, n = 2
  MIC: 1 µg/mL (≈ 0.57 µM)
MRSA ATCC 43300; Nunc U TC plate, MHB +0.002% T80, n = 2
  MIC: 0.25 to 0.5 µg/mL
MRSA ATCC 43300; Nunc U TC plate, MHB −T80, n = 2
  MIC: 0.5 µg/mL (≈ 0.285 µM)
MRSA ATCC 43300; Nunc flat PS plate, MHB +0.002% T80, n = 2
  MIC: 0.06 µg/mL (≈ 0.0342 µM)
MRSA ATCC 43300; Nunc flat PS plate, MHB −T80, n = 2
  MIC: 0.06 µg/mL (≈ 0.0342 µM)
MRSA ATCC 43300; Nunc flat TC plate, MHB +0.002% T80, n = 2
  MIC: 0.125 to 0.25 µg/mL
MRSA ATCC 43300; Nunc flat TC plate, MHB −T80, n = 2
  MIC: 0.5 to 1 µg/mL
MRSA ATCC 43300; TC plates without additive
  MIC: 0.5 to 1 µg/mL
MRSA ATCC 43300; Trek PS, MH + 2% LHB, 2% LS, n = 2
  MIC: 0.06 to 0.25 µg/mL
MRSA ATCC 43300; Trek PS, MH + 2% LHB, 50% HS, n = 2
  MIC: 0.06 to 0.125 µg/mL
MRSA ATCC 43300; Trek PS, MH + 2% LHB, no additive, n = 2
  MIC: 0.015 µg/mL
MRSA ATCC 43300; Trek PS, MH + T80, 2% LS, n = 2
  MIC: 0.06 µg/mL
MRSA ATCC 43300; Trek PS, MH + T80, 50% HS, n = 2
  MIC: 0.125 to 0.25 µg/mL
MRSA ATCC 43300; Trek PS, MH, 2% LS, n = 2
  MIC: 0.03 to 0.06 µg/mL
MRSA ATCC 43300; Trek PS, MH, 50% HS, n = 2
  MIC: 0.125 µg/mL (≈ 0.0712 µM)
MRSA ATCC 43300; Trek flat PS plate, MHB +0.002% T80, no further additive, n = 2
  MIC: 0.03 to 0.06 µg/mL
MRSA ATCC 43300; Trek flat PS plate, MHB −T80, no additive, n = 2
  MIC: 0.03 to 0.06 µg/mL
MRSA ATCC 43300; all 3 untreated PS plates, with and without added T80
  MIC: around 0.06 µg/ml
E. faecalis ATCC 29212; Corning NBS, MHB +T80
  MIC: 0.06 µg/mL (≈ 0.0342 µM)
E. faecalis ATCC 29212; Corning NBS, MHB -T80
  MIC: 0.06 to 0.125 µg/mL
E. faecalis ATCC 29212; Corning PS, MHB +T80
  MIC: 0.03 to 0.06 µg/mL
E. faecalis ATCC 29212; Corning PS, MHB -T80
  MIC: 0.125 to 0.5 µg/mL
E. faecalis ATCC 29212; Corning TC, MHB +T80
  MIC: 0.06 to 0.125 µg/mL
E. faecalis ATCC 29212; Corning TC, MHB -T80
  MIC: 0.5 to 4 µg/mL
[1]; Corning NBS, MHB +T80
  MIC: 0.125 to 0.25 µg/mL
[1]; Corning NBS, MHB -T80
  MIC: 0.06 to 0.125 µg/mL
[1]; Corning PS, MHB +T80
  MIC: 0.25 to 0.5 µg/mL
[1]; Corning PS, MHB -T80
  MIC: 0.25 to 2 µg/mL
[1]; Corning TC, MHB +T80
  MIC: 0.25 µg/mL (≈ 0.142 µM)
[1]; Corning TC, MHB -T80
  MIC: 0.5 to 2 µg/mL
[2]; Corning NBS, MHB +T80
  MIC: 0.125 µg/mL (≈ 0.0712 µM)
[2]; Corning NBS, MHB -T80
  MIC: 0.06 to 0.125 µg/mL
[2]; Corning PS, MHB +T80
  MIC: 0.125 µg/mL (≈ 0.0712 µM)
[2]; Corning PS, MHB -T80
  MIC: 0.125 to 0.5 µg/mL
[2]; Corning TC, MHB +T80
  MIC: 0.25 µg/mL (≈ 0.142 µM)
[2]; Corning TC, MHB -T80
  MIC: 1 to 8 µg/mL
S. pneumoniae ATCC 33440; Corning NBS, MHB +T80
  MIC: 0.125 µg/mL (≈ 0.0712 µM)
S. pneumoniae ATCC 33440; Corning NBS, MHB -T80
  MIC: 0.125 µg/mL (≈ 0.0712 µM)
S. pneumoniae ATCC 33440; Corning PS, MHB +T80
  MIC: 0.125 µg/mL (≈ 0.0712 µM)
S. pneumoniae ATCC 33440; Corning PS, MHB -T80
  MIC: 0.5 to 4 µg/mL
S. pneumoniae ATCC 33440; Corning TC, MHB +T80
  MIC: 0.25 µg/mL (≈ 0.142 µM)
S. pneumoniae ATCC 33440; Corning TC, MHB -T80
  MIC: 1 to 2 µg/mL
[3]; Corning NBS, MHB +T80
  MIC: 0.06 to 0.125 µg/mL
[3]; Corning NBS, MHB -T80
  MIC: 0.03 to 0.06 µg/mL
[3]; Corning PS, MHB +T80
  MIC: 0.06 to 0.125 µg/mL
[3]; Corning PS, MHB -T80
  MIC: 0.06 µg/mL (≈ 0.0342 µM)
[3]; Corning TC, MHB +T80
  MIC: 0.125 µg/mL (≈ 0.0712 µM)
[3]; Corning TC, MHB -T80
  MIC: 0.5 to 2 µg/mL
S. pyogenes ATCC 12344; Corning NBS, MHB +T80
  MIC: 0.003 to 0.015 µg/mL
S. pyogenes ATCC 12344; Corning NBS, MHB -T80
  MIC: ≤ 0.003 µg/mL
S. pyogenes ATCC 12344; Corning PS, MHB -T80
  MIC: ≤ 0.003 µg/mL
S. pyogenes ATCC 12344; Corning TC, MHB +T80
  MIC: 0.007 to 0.015 µg/mL
S. pyogenes ATCC 12344; Corning TC, MHB -T80
  MIC: ≤ 0.003 µg/mL
MRSA
  MIC (literature): 0.06 ([66], [67]) µg/ml
[4]
  protein binding: 90 to 93%
[5]
  half-life: 8 h

From paper PMC6325200, “Effects of Microplate Type and Broth Additives on Microdilution MIC Susceptibility Assays” (Antimicrobial Agents and Chemotherapy, 2018)
